# Laboratory results as given in patent US8629276B2, “Inhibitors of human immunodeficiency virus replication” (priority 2012, dated 2014).
# pEC50: −log10 of the molar value.
# System: recombinant NL-Rluc virus
# Assay: Inhibition of HIV replication (NL-RLuc virus, luciferase readout in MT-2 cells)
# Type: cell-based
# Details: Human immunodeficiency virus 1, MT2, 120 h
row,Compound,pEC50
1,"CC(C)c1nc2c(c(-c3ccc(F)cc3)c1C(OC(C)(C)C)C(=O)O)CN(c1ccc(-c3ccccc3)cc1)CC2(C)C (stereo not drawn) [Example 18, 2-(6-([1,1′-Biphenyl]-4-yl)-4-(4-fluorophenyl)-2-isopropyl-8,8-dimethyl-5,6,7,8-tetrahydro-1,6-naphthyridin-3-yl)-2-(tert-butoxy)acetic acid]",5.70
2,"Cc1ccc(-c2c3c(nc(C)c2C(OC(C)(C)C)C(=O)O)CCN(C(=O)OCc2ccccc2)C3)cc1 (stereo not drawn) [Example 19, 2-(6-((Benzyloxy)carbonyl)-2-methyl-4-(p-tolyl)-5,6,7,8-tetrahydro-1,6-naphthyridin-3-yl)-2-(tert-butoxy)acetic acid]",6.65
3,"Cc1ccc(-c2c3c(nc(C)c2C(OC(C)(C)C)C(=O)O)CCNC3)cc1 (stereo not drawn) [Example 20, 2-(tert-Butoxy)-2-(2-methyl-4-(p-tolyl)-5,6,7,8-tetrahydro-1,6-naphthyridin-3-yl)acetic acid]",4.87
4,"Cc1ccc(-c2c3c(nc(C)c2C(OC(C)(C)C)C(=O)O)CCN(Cc2ccccc2)C3)cc1 (stereo not drawn) [Example 21, 2-(6-Benzyl-2-methyl-4-(p-tolyl)-5,6,7,8-tetrahydro-1,6-naphthyridin-3-yl)-2-(tert-butoxy)acetic acid]",6.53
5,"Cc1ccc(-c2c3c(nc(C)c2C(OC(C)(C)C)C(=O)O)CCN(S(C)(=O)=O)C3)cc1 (stereo not drawn) [Example 22, 2-(tert-Butoxy)-2-(2-methyl-6-(methylsulfonyl)-4-(p-tolyl)-5,6,7,8-tetrahydro-1,6-naphthyridin-3-yl)acetic acid]",5.58
6,"Cc1ccc(-c2c3c(nc(C)c2C(OC(C)(C)C)C(=O)O)CCN(C)C3)cc1 (stereo not drawn) [Example 23, 2-(tert-Butoxy)-2-(2,6-dimethyl-4-(p-tolyl)-5,6,7,8-tetrahydro-1,6-naphthyridin-3-yl)acetic acid]",5.68
7,"Cc1ccc(-c2c3c(nc(C)c2C(OC(C)(C)C)C(=O)O)CCN(CCc2ccccc2)C3)cc1 (stereo not drawn) [Example 24, 2-(tert-Butoxy)-2-(2-methyl-6-phenethyl-4-(p-tolyl)-5,6,7,8-tetrahydro-1,6-naphthyridin-3-yl)acetic acid]",6.62
8,"CC(=O)N1CCc2nc(C)c(C(OC(C)(C)C)C(=O)O)c(-c3ccc(C)cc3)c2C1 (stereo not drawn) [Example 25, 2-(6-Acetyl-2-methyl-4-(p-tolyl)-5,6,7,8-tetrahydro-1,6-naphthyridin-3-yl)-2-(tert-butoxy)acetic acid]",5.72
9,"COC(=O)N1CCc2nc(C)c(C(OC(C)(C)C)C(=O)O)c(-c3ccc(C)cc3)c2C1 (stereo not drawn) [Example 26, 2-(tert-Butoxy)-2-(6-(methoxycarbonyl)-2-methyl-4-(p-tolyl)-5,6,7,8-tetrahydro-1,6-naphthyridin-3-yl)acetic acid]",5.78
10,"Cc1ccc(-c2c3c(nc(C)c2C(OC(C)(C)C)C(=O)O)CCN(C(=O)NCc2ccccc2)C3)cc1 (stereo not drawn) [Example 27, 2-(6-(Benzylcarbamoyl)-2-methyl-4-(p-tolyl)-5,6,7,8-tetrahydro-1,6-naphthyridin-3-yl)-2-(tert-butoxy)acetic acid]",6.30
11,"Cc1ccc(-c2c3c(nc(C)c2C(OC(C)(C)C)C(=O)O)CCN(C(=O)CCc2ccccc2)C3)cc1 (stereo not drawn) [Example 28, 2-(tert-Butoxy)-2-(2-methyl-6-(3-phenylpropanoyl)-4-(p-tolyl)-5,6,7,8-tetrahydro-1,6-naphthyridin-3-yl)acetic acid]",6.47
12,"Cc1ccc(-c2c3c(nc(C)c2C(OC(C)(C)C)C(=O)O)CCN(CCCc2ccccc2)C3)cc1 (stereo not drawn) [Example 29, 2-(tert-Butoxy)-2-(2-methyl-6-(3-phenylpropyl)-4-(p-tolyl)-5,6,7,8-tetrahydro-1,6-naphthyridin-3-yl)acetic acid]",8.00
13,"Cc1ccc(-c2c3c(nc(C)c2C(OC(C)(C)C)C(=O)O)CCN(c2ccc(-c4ccccc4)cc2)C3)cc1 (stereo not drawn) [Example 30, 2-(6-([1,1′-Biphenyl]-4-yl)-2-methyl-4-(p-tolyl)-5,6,7,8-tetrahydro-1,6-naphthyridin-3-yl)-2-(tert-butoxy)acetic acid]",6.49
14,"Cc1ccc(-c2c3c(nc(C)c2C(OC(C)(C)C)C(=O)O)CCN(c2ccccc2)C3)cc1 (stereo not drawn) [Example 31, 2-(tert-Butoxy)-2-(2-methyl-6-phenyl-4-(p-tolyl)-5,6,7,8-tetrahydro-1,6-naphthyridin-3-yl)acetic acid]",6.33
15,"COc1ccc(CCCN2CCc3nc(C)c([C@H](OC(C)(C)C)C(=O)O)c(-c4ccc(C)cc4)c3C2)cc1 [Example 33, (S)-2-(tert-Butoxy)-2-(6-(3-(4-methoxyphenyl)propyl)-2-methyl-4-(p-tolyl)-5,6,7,8-tetrahydro-1,6-naphthyridin-3-yl)acetic acid]",7.77
16,"Cc1ccc(-c2c3c(nc(C)c2[C@H](OC(C)(C)C)C(=O)O)CCN(CCCc2ccc(Cl)cc2)C3)cc1 [Example 34, (S)-2-(tert-Butoxy)-2-(6-(3-(4-chlorophenyl)propyl)-2-methyl-4-(p-tolyl)-5,6,7,8-tetrahydro-1,6-naphthyridin-3-yl)acetic acid]",7.92
17,"Cc1nc2c(c(-c3cc(F)c4c(c3C)CCCO4)c1[C@H](OC(C)(C)C)C(=O)O)CN(C(=O)OCc1ccccc1)CC2(C)C [Example 35, (2S)-2-(6-((Benzyloxy)carbonyl)-4-(8-fluoro-5-methylchroman-6-yl)-2,8,8-trimethyl-5,6,7,8-tetrahydro-1,6-naphthyridin-3-yl)-2-(tert-butoxy)acetic acid]",8.52
18,"Cc1ccc(-c2c3c(nc(C)c2[C@H](OC(C)(C)C)C(=O)O)CCN(C(=O)CCCc2ccccc2)C3)cc1 [Example 36, (S)-2-(tert-Butoxy)-2-(2-methyl-6-(4-phenylbutanoyl)-4-(p-tolyl)-5,6,7,8-tetrahydro-1,6-naphthyridin-3-yl)acetic acid]",7.28
19,"Cc1nc2c(c(-c3cc(F)c4c(c3C)CCCO4)c1[C@H](OC(C)(C)C)C(=O)O)CN(Cc1cccc(Cl)c1)CC2(C)C [Example 37, (2S)-2-(tert-Butoxy)-2-(6-(3-chlorobenzyl)-4-(8-fluoro-5-methylchroman-6-yl)-2,8,8-trimethyl-5,6,7,8-tetrahydro-1,6-naphthyridin-3-yl)acetic acid]",7.16
20,"Cc1nc2c(c(-c3ccc(Cl)cc3)c1[C@H](OC(C)(C)C)C(=O)O)CN(C(=O)OCc1ccccc1)CC2 [Example 38, (S)-2-(6-((Benzyloxy)carbonyl)-4-(4-chlorophenyl)-2-methyl-5,6,7,8-tetrahydro-1,6-naphthyridin-3-yl)-2-(tert-butoxy)acetic acid]",6.27
21,"Cc1ccc(-c2c3c(nc(C)c2[C@H](OC(C)(C)C)C(=O)O)CCN(Cc2cccc(Cl)c2)C3)cc1 [Example 39, (S)-2-(tert-Butoxy)-2-(6-(3-chlorobenzyl)-2-methyl-4-(p-tolyl)-5,6,7,8-tetrahydro-1,6-naphthyridin-3-yl)acetic acid]",6.86
22,"Cc1nc2c(c(-c3cc(F)c4c(c3C)CCCO4)c1[C@H](OC(C)(C)C)C(=O)O)CN(CCCc1ccccc1)CC2(C)C [Example 40, (2S)-2-(tert-Butoxy)-2-(4-(8-fluoro-5-methylchroman-6-yl)-2,8,8-trimethyl-6-(3-phenylpropyl)-5,6,7,8-tetrahydro-1,6-naphthyridin-3-yl)acetic acid]",8.70
23,"Cc1ccc(-c2c3c(nc(C)c2[C@H](OC(C)(C)C)C(=O)O)CCN(Cc2ccc(Cl)cc2)C3)cc1 [Example 41, (S)-2-(tert-Butoxy)-2-(6-(4-chlorobenzyl)-2-methyl-4-(p-tolyl)-5,6,7,8-tetrahydro-1,6-naphthyridin-3-yl)acetic acid]",6.82
24,"Cc1ccc(-c2c3c(nc(C)c2[C@H](OC(C)(C)C)C(=O)O)C(C)(C)CN(CCCc2ccccc2)C3)cc1 [Example 43, (S)-2-(tert-Butoxy)-2-(2,8,8-trimethyl-6-(3-phenylpropyl)-4-(p-tolyl)-5,6,7,8-tetrahydro-1,6-naphthyridin-3-yl)acetic acid]",7.54
25,"Cc1ccc(-c2c3c(nc(C)c2[C@H](OC(C)(C)C)C(=O)O)CCN(CCc2c[nH]c4ccccc24)C3)cc1 [Example 46, (S)-2-(6-(2-(1H-Indol-3-yl)ethyl)-2-methyl-4-(p-tolyl)-5,6,7,8-tetrahydro-1,6-naphthyridin-3-yl)-2-(tert-butoxy)acetic acid]",6.86
26,"Cc1nc2c(c(-c3cc(F)c4c(c3C)CCCO4)c1[C@H](OC(C)(C)C)C(=O)O)CN(CC1CC1c1ccccc1)CC2 (stereo partly drawn) [Example 50, (2S)-2-(tert-Butoxy)-2-((R)-4-(8-fluoro-5-methylchroman-6-yl)-2-methyl-6-((2-phenylcyclopropyl)methyl)-5,6,7,8-tetrahydro-1,6-naphthyridin-3-yl)acetic acid]",8.30
27,"Cc1ccc(CCCN2CCc3nc(C)c([C@H](OC(C)(C)C)C(=O)O)c(-c4cc(F)c5c(c4C)CCCO5)c3C2)cc1 [Example 54, (2S)-2-(tert-Butoxy)-2-(4-(8-fluoro-5-methylchroman-6-yl)-2-methyl-6-(3-(p-tolyl)propyl)-5,6,7,8-tetrahydro-1,6-naphthyridin-3-yl)acetic acid]",8.70
